According to EP0314528B1, “Article for the controlled release and delivery of substances to animal tissues” (HERCON LABORATORIES CORPORATION, priority 1987, dated 1989):

Columns and labels:
[1] = system: human subject previously sensitized to clonidine; assay: Contact allergic dermatitis to clonidine patches with incorporated fluocinonide, sensitized subject; format: in vivo; conditions: 2% fluocinonide incorporated in the clonidine patch
Source text: (§1) The Grading System for this example is as follows: +/- faint, or spotty, pink color within test site; 1 uniform pink color covering all of test site; 2 uniform pink to red color covering all of test site; 3 uniform bright red color covering all of test site; 4 uniform bright red color covering all of test side with edema, blisters, or weeping.
(§2) Objective - To block the contact allergic dermatitis which occurs following application of clonidine patches to the skin through incorporation of fluocinonide in the patches. Materials - One formulation of the anti-hypertensive drug clonidine was used in which either 0% or 2% fluocinonide was incorporated. A second formulation containing no clonidine was also tested. Thus, the following formulations were prepared: […]
Methods - Two patches containing clonidine and either 0% or 2% fluocinonide were applied to the upper back of a single human subject previously sensitized to clonidine. A third patch containing no clonidine and no fluocinonide was also applied as a placebo. The patches were removed after 7 days and the sites read immediately and on the 8th day as well. […]

[2] = system: human subject previously sensitized to trifluoperazine; assay: Contact allergic dermatitis to trifluoperazine patches with incorporated fluocinonide, sensitized subject; format: in vivo; conditions: 2% fluocinonide incorporated in the trifluoperazine patch
Source text: as §1
as §2, with “trifluoperazine” for “clonidine”, “through the” for “through”, “tranquilizer” for “anti-hypertensive”, “incorporated.” for “incorporated. A second formulation containing no clonidine was also tested.”
Methods - Two patches containing trifluoperazine and either 0% or 2% fluocinonide were applied to the upper arm of a single human subject previously sensitized to trifluoperazine. The patches were removed after two days and the sites read immediately and 24 and 48 hours later as well. […]

human subject [3] = assay: Contact irritant dermatitis to RO 22-1327 patches with incorporated fluocinonide; format: in vivo; conditions: 1.0% fluocinonide incorporated into the RO 22-1327 patch
Source text: as §1
Objective - To block the contact irritant dermatitis observed following application of RO 22-1327 patches to the skin through the incorporation of fluocinonide in the patch. Materials - One formulation of the antihypertensive drug RO 22-1327 was used, in which either 0%, 0.1%. 1.0% or 5% fluocinonide was incorporated. Methods - Four patches containing RO 22-1327 and fluocinonide at either 0%, 0.1%, 1.0%. or 5.0% were applied to the upper arms (two per arm) of a single human subject not previously exposed to this drug. The patches were removed at 8 hours and the sites observed for signs of dermatitis immediately and 16 hours later. In a second test. one RO 22-1327 patch containing 1.0% fluocinonide was applied to the upper arm of the same human subject as above and removed after 24 hours. The site was examined immediately for signs of dermatitis.

[4] = system: human subject previously sensitized to fluphenazine; assay: Contact allergic dermatitis to fluphenazine patches with incorporated fluocinonide, sensitized subject; format: in vivo; conditions: 1% or 5% fluocinonide incorporated in the fluphenazine patch
Source text: as §1
Objective - To block contact dermatitis observed following application of fluphenazine patches to the skin through incorporation of fluocinonide in the patch. Materials - One formulation of the anti-psychotic drug fluphenazine was used in which either 0%, 1% or 5% fluocononide was incorporated. Thus, the following formulations were prepared: […]
Methods - Three patches containing fluphenazine and fluocinonide at either 0%, 1% or 5% of fluocinonide were applied to the upper arm of a single human subject previously sensitized to fluphenazine. The patches were removed at 48 hours and the sites observed for signs of allergic dermatitis immediately and at 72 and 96 hours. […]

leukotriene C4 = conditions: cited from earlier work
prostaglandin E2 = conditions: cited from earlier work
cyclooxygenase = conditions: cited from earlier work
guinea pig skin = conditions: compared with indomethacin; cited from earlier work
rat footpad = conditions: applied topically to rat footpad; cited from earlier work
human subject [5] = assay: Contact irritant dermatitis to guanfacine patches with incorporated hydrocortisone; format: in vivo; conditions: 23 hour and 1 week observation
Source text: as §1
Objective - To block the contact irritant dermatitis observed following application of guanfacine patches to the skin through the incorporation of hydrocortisone in the patch. Materials - Two formulations of the antihypertensive drug guanfacine were used in this study. Into each was incorporated hydrocortisone at either 0.5% or 2.0%. Control patches containing no hydrocortisone were also used. Thus, the following formulations were prepared: […]
(To make the 0.5% hydrocortisone formulations, 20 mg hydrocortisone was added to 4 grams of the above formulations. To make 2.0% hydrocortisone formulations, 80 mg of hydrocortisone was added to 4 grams of the above two formulations). Methods - Three patches of each of the two guanfacine formulations, containing either 0%, 0.5% or 2.0% hydrocortisone, were applied to the upper arm of a single human subject not previously exposed to this drug. The patches were removed after 23 hours and the sites observed for signs of dermatitis. One week later, the sites were again observed.

Structure (SMILES): CC(=O)OCC(=O)[C@@]12OC(C)(C)O[C@@H]1C[C@H]1[C@@H]3C[C@H](F)C4=CC(=O)C=C[C@]4(C)[C@@]3(F)[C@@H](O)C[C@@]12C [fluocinonide]
- allergic reaction (erythema and blistering) caused by clonidine [1]: significantly reduced
- magnitude of the allergic reaction (erythema and blistering) caused by trifluoperazine [2]: significantly reduced
- irritant dermatitis associated with the use of RO 22-1327 (human subject [3]): significant reduction
- allergic reaction (erythema and blistering) caused by fluphenazine [4]: almost completely blocked

Structure (SMILES): COc1cc(-c2nc3ncccc3o2)cc(C(C)(C)C)c1 [2-(3-(1,1-dimethylethyl)5-methoxyphenyl-oxazolo(4,5-b)pyridine]
- inhibition of leukotriene C4 synthesis (leukotriene C4): not
- inhibition of prostaglandin E2 synthesis (prostaglandin E2): inhibitor
- cyclooxygenase inhibition (cyclooxygenase): inhibitor
- inhibiting ultra-violet light-induced erythema (guinea pig skin): as potent as indomethacin
- analgesic effect (rat footpad): effective analgesic

Structure (SMILES): C[C@]12CCC(=O)C=C1CC[C@@H]1[C@@H]2[C@@H](O)C[C@@]2(C)[C@H]1CC[C@]2(O)C(=O)CO [hydrocortisone]
- adverse reactions (irritant dermatitis) (human subject [5]; 0.5% hydrocortisone guanfacine patches): variable
- adverse reactions (irritant dermatitis) (human subject [5]; 2.0% hydrocortisone guanfacine patches): No adverse reactions
